# According to patent US4499107A, “Method for treating infected renal calculosis” (Dr. L^o. Zambeletti, S.p.A., priority 1981, dated 1985):
# Like-named read-outs stand apart in the source and are kept apart here.
# Legend:
# [1] = rabbit, in vivo; for duration of the reduction of the arterial pressure: po, 100 mg/kg
# [2] = tested on: Salmonella typhimurium (TA 100 and TA 98); settings: strains TA 100 and TA 98, 40,000 μg/plate; cited from earlier work
# Acute toxicity = settings: mouse, in vivo
# [3] = Teratogenesis in pregnant female rats
# [4] = design: species or system "Wistar" rats; settings: rat, in vivo, po, 200 mg/kg
# Method: Subacute toxicity. A test lasting 4 weeks has been carried out on the two compounds administered at the dose of 200 mg/kg by oral route to groups of "Wistar" rats, 8 males and 8 females, with daily observation of the behavior, of health status, of feed and water consumption and, twice a week, of the body weight of animals. At the end of 4 weeks the animals have been sacrificed and autopsy and haematological and haematochemical examinations have been performed on them. For all the duration of the test, no anomaly has been noticed in the behavior of both AHA-treated and PHA-treated animals.
# [5] = tested on: chinese hamster embryonal cell cultures; settings: 1,1.10^-4 M; cited from earlier work
# [6] = tested on: mouse embryonal cell cultures; settings: 1,1.10^-4 M; cited from earlier work
# [7] = tested on: urease-producing bacteria; settings: renal lithiasis sustained by urease-producing bacteria; cited from earlier work
# [8] = pregnant female rats, 12th day of pregnancy, cited from earlier work
# [9] = tested on: chinese hamster embryonal cell cultures; test: Mutagenesis: morphological changes of the chromosomes in embryonal cell cultures; format: cell-based; settings: 1.1 10^-4 M, 24-72 hours of incubation
# Source text: (§1) Mutagenesis. As far as AHA is concerned, it has been previously reported. […] The propionhydroxamic acid is non mutagenic also in the Ames test.
# [10] = tested on: mouse embryonal cell cultures; test: as above; format: cell-based; settings: 1.1 10^-4 M, 24-72 hours of incubation
# Source text: as §1
# [11] = tested on: Salmonella typhimurium (TA 100 and TA 98); test: Ames test; format: cell-based
# Method: In the Belgian Pat. No. 878,836, Jan. 16, 1980, it is moreover reported that AHA is mutagenic according to the Ames test on two strains of Salmonella typhimurium (TA 100 and TA 98), at the dose of 40,000 μg/plate.
# as §1
# [12] = tested on: urinary infection caused by urease-producing bacteria; format: in vivo, patient
# Source text: The results shown above, pointing out a globally superimposable behavior of AHA and PHA, with the exclusion of the fundamental aspects of the mutagenesis and of the theratogenesis, which are absent in propionhydroxamic acid, prompted to test this latter compound on some clinical cases, hereunder reported. (1) Urinary infection caused by urease-producing bacteria; (2) relapsing renal calculosis.
# [13] = rat, in vivo, ip, 300 mg/kg
# [14] = Case 1, 500 mg/die combined with antibiotic therapy
# [15] = Case 2, 375 mg/die combined with antibiotic therapy
# [16] = Case 4, 500 mg/die with antibiotic therapy, after 3 months
# [17] = Case 5, 500 mg/die with antibiotic therapy
structure (smiles),measurement,setting,value
"CC(=O)NO [AHA, acetohydroxamic acid, reference compound]",reduction of the mean arterial pressure,[1]; 50 mg/kg,15%
same,time after administration at which the reduction of mean arterial pressure is still present,[1]; 50 mg/kg,≥ 120 min
same,duration of the reduction of the arterial pressure,[1],> 120 min
same,mutagenicity in the Ames test,[2],mutagenic
same,LD50,Acute toxicity; po,2740 mg/kg
same,dead fetuses (comparison value),[3]; dose for AHA not stated at this place,50%
same,"autoptical examination of the main organs (thymus, testes, heart, liver)",[4],hypotrophy of the main organs
same,behavior of animals,[4],no anomaly
same,feed consumption,[4],decrease
same,"haematochemical parameters, AHA versus PHA",[4],No remarkable differences
same,macroscopic lesion of the main organs,[4],no macroscopic lesion
same,morphological changes of the chromosomes provoked by damages at DNA,[5],causes morphological changes of the chromosomes
same,morphological changes of the chromosomes provoked by damages at DNA,[6],causes morphological changes of the chromosomes
same,drug's action on urinary ammonium and urinary pH,[7],decrease of urinary ammonium and urinary pH
same,fetuses with deformations,[8]; i.p. 750 mg/kg una tantum,50%
same,deaths of fetuses,[8]; i.p. 1000 mg/kg una tantum,55%
same,deformations in the survived fetuses,[8]; i.p. 1000 mg/kg una tantum,100%
same,reabsorption of fetuses,[8]; i.p. 1500 mg/kg una tantum,100%
"CCC(=O)NO [PHA, propionhydroxamic acid]",blood pressure,[1]; 50 mg/kg,does not change
same,heart rate,[1]; 50 mg/kg,does not change
same,duration of the reduction of the arterial pressure,[1],10 to 30 min
same,morphologic change of the chromosomes provoked by damages at DNA,[9],did not induce
same,morphologic change of the chromosomes provoked by damages at DNA,[10],did not induce
same,LD50,"Acute toxicity; oral route, confidence limits in brackets",2370 mg/kg
same,mutagenicity in the Ames test,[11],non mutagenic
same,dead fetuses,"[3]; intraperitoneal, once on the 13th day of pregnancy, 300 mg/kg",55%
same,"autoptical examination of the main organs (thymus, testes, heart, liver)",[4],hypotrophy of the main organs
same,behavior of animals,[4],no anomaly
same,feed consumption,[4],decrease
same,"haematochemical parameters, AHA versus PHA",[4],No remarkable differences
same,macroscopic lesion of the main organs,[4],no macroscopic lesion
same,urinary ammonium values,[12]; [14],normalization
same,urinary pH,[12]; [14],normalization
same,urinary cultures,"[12]; Case 1, 500 mg/die combined with antibiotic therapy, Proteus mirabilis",sterilization of urinary cultures
same,effect of temporary interruption of the drug,"[12]; Case 2, 375 mg/die",reapparence of urease producing bacteria (Klebsiella)
same,urinary ammonium values,[12]; [15],decrease of urinary ammonium values
same,urinary infection,[12]; [15],resolution of urinary infection
same,urinary acidification,"[12]; Case 2, 375 mg/die combined with antibiotic therapy, Proteus mirabilis and Klebsiella",sufficient urinary acidification
same,volumetric increase of the lithiasic relapse,"[12]; Case 2, 375 mg/die, during 5 months' therapy",not observed
same,lithiasic relapse at the left kidney,[12]; Case 3,Absence of lithiasic relapse
same,crystalluria,"[12]; Case 3, combination",non pathologic crystalluria
same,urinary ammonium,"[12]; Case 3, combination, Proteus mirabilis",normalization
same,lithiasic relapse at the left kidney,"[12]; Case 4, 500 mg/die",no lithiasic relapse
same,crystalluria,[12]; [16],normalization
same,urinary pH,[12]; [16],normalization
same,ammonium values,"[12]; Case 4, 500 mg/die with antibiotic therapy, after 3 months, Proteus mirabilis and Klebsiella",normalization
same,growth of the already present lithiasic formation,[12]; [17],stopping of the growth
same,onset of further relapses,[12]; [17],lacking onset of further relapses
same,urinary infection,[12]; [17],resolution of urinary infection
same,urinary pH,[12]; [17],normalization
same,urinary ammonium,"[12]; Case 5, 500 mg/die with antibiotic therapy, Proteus mirabilis",normalization
same,morphological development of the survived fetuses,[13],perfectly normal development
